Reference: US20010036948A1 (priority 1998, published 2001)
“And” between values parts separate entries of the source, which are not always exact repeats. Identical values can stand only once.

What was measured:
[1] = tested on: T/G HA-VSMC cells (human aortic smooth muscle cell system); format: cell-based
Vero cells = format: cell-based, monkey
[2] = tested on: T/G Human Aortic Smooth Muscle Cells; format: cell-based; as to Growth score: key: −: Lethal treatment, no cells left viable, all rounded, shriveled and dead; −/+: Some treated cells remain viable, about equal amount of clearly dead cells; +/−: Most cells remain viable, detectable number of dead cells; 1+: All cells appear viable, same density as when treated; 2+: Minimal proliferation, compared to control; 3+: Moderate proliferation compared to control; 4+: Maximal growth, unaffected by treatment

Compound	Effect on the increase in the number of cultured cells [1]	Effect on the increase in the number of cultured cells (Vero cells)	Effect on the increase in the number of cultured cells [2]	Growth score [2]
O=C(CCNc1c2ccccc2nc2ccccc12)OCCN(CCCl)CCCl [β-alanine, N-(acridin-9-yl), 2-[bis(2-chloroethyl)amino]ethyl ester]	inhibited the increase in the number	inhibited the increase in the number	inhibited the increase in the number of cultured Human Aortic Smooth Muscle Cells in a dose-dependent manner with a relatively broad therapeutic window	−/+ and 1+ and +/− and 3+ and 4+
NC(Cc1ccc(N(CCCl)CCCl)cc1)C(=O)O (centres unmarked) [Melphalan, melphalan, reference compound]	–	–	–	2+ and 1+ and 3+ and 4+
